Data set [1] deals with Enterococcus faecalis CMCC 29212. Nature of the data set: Antibacterial MIC, serial dilution. Type of data set: cell-based. The conditions noted are these: E. faecalis CMCC 29212, 24 h, 37 °C. As to the method: (§1) Test bacteria were grown to mid-log phase in Mueller–Hinton broth (MHB) or Tryptone Soya Broth (TSB) and diluted 1000-fold in the same medium. Bacteria (10^5 CFU/mL) were inoculated into MHB or TSB and dispensed at 0.2 ml/well into a 96-well microtiter plate. As positive controls, gatifloxacin, moxifloxacin, norfloxacin, oxacillin, and penicillin were used. […] Bacterial growth was determined by measuring the absorption at 630 nm using a microplate reader. All experiments were carried out three times.
(§2) The evaluation of antibacterial activity of all compounds (3a–3j and 6a–6k) was performed by a serial dilution method to determine the MIC against a panel of pathogens comprising five Gram-positive strains (S. aureus (CMCC(B) 26003 and CMCC 25923), Streptococcus mutans BNCC 336931, Enterococcus faecalis CMCC 29212, and Bacillus subtilis CMCC 63501), four Gram-negative strains (E. coli (CMCC 25922 and CMCC 44568) and P. aeruginosa (CMCC 27853 and CMCC 10104)), as well as three methicillin-resistant clinical isolates (S. aureus ATCC 43300 and ATCC 33591, P. aeruginosa ATCC BAA-2111). The results are described in Tables 1 and 2. Gatifloxacin, moxifloxacin, norfloxacin, oxacillin, and penicillin were used as positive controls.

Data set [2] has as its system Escherichia coli CMCC 44568. Nature of the data set: Antibacterial MIC, serial dilution. Type of data set: cell-based. Conditions: E. coli CMCC 44568, 24 h, 37 °C. How it is done: as §1, §2
Data set [3] has as its system Escherichia coli CMCC 25922. Nature of the data set: Antibacterial MIC, serial dilution. Type of data set: cell-based. Conditions: E. coli CMCC 25922, 24 h, 37 °C. As to the method: as §1, §2
For data set [4], the system named is Pseudomonas aeruginosa CMCC 10104. As to the kind of experiment: Antibacterial MIC, serial dilution. Conditions: P. aeruginosa CMCC 10104, 24 h, 37 °C. Type of data set: cell-based. How it is done:
as §1, §2

Data set [5] deals with Pseudomonas aeruginosa CMCC 27853. Nature of the data set: Antibacterial MIC, serial dilution. Format: cell-based. Conditions: P. aeruginosa CMCC 27853, 24 h, 37 °C. How it is done:
as §1, §2

Data set [6] deals with Staphylococcus aureus CMCC(B)26003. As to the kind of experiment: Antibacterial MIC, serial dilution. The conditions noted are these: S. aureus CMCC(B)26003, 24 h, 37 °C. Format: cell-based. How it is done:
as §1, §2

The subject of data set [7] is Bacillus subtilis CMCC 63501. Nature of the data set: Antibacterial MIC, serial dilution. Type of data set: cell-based. Conditions: B. subtilis CMCC 63501, 24 h, 37 °C. As to the method: as §1, §2
In data set [8] the test system is Streptococcus mutans BNCC 336931. As to the kind of experiment: Antibacterial MIC, serial dilution. Format: cell-based. Conditions: S. mutans BNCC 336931, 24 h, 37 °C. How it is done:
as §1, §2

For data set [9], the system named is Staphyiococcus aureus CMCC 25923. As to the kind of experiment: Antibacterial MIC, serial dilution. Format: cell-based, Staphylococcus aureus. The conditions noted are these: S. aureus CMCC 25923, 24 h, 37 °C. As to the method: as §1, §2
In data set [10] the test system is Staphylococcus aureus ATCC 33591. As to the kind of experiment: Antibacterial MIC, multidrug-resistant clinical isolate. Type of data set: cell-based. The conditions noted are these: multidrug-resistant S. aureus ATCC 33591. As to the method:
as §1, §2

Data set [11] has as its system Staphylococcus aureus ATCC 43300. The data set is described as above. The conditions noted are these: multidrug-resistant S. aureus ATCC 43300. Type of data set: cell-based. How it is done:
as §1, §2

Where [12] appears, read: Enterococcus faecalis, CMCC29212, read-out: MIC.
[13] abbreviates: Escherichia coli, CMCC44568, read-out: MIC.
Setting [14] is: Escherichia coli, CMCC25922, read-out: MIC.
Setting [15] is: Pseudomonas aeruginosa, CMCC10104, read-out: MIC.
[16] abbreviates: Pseudomonas aeruginosa, CMCC27853, read-out: MIC.
The mark [17] stands for this setting: Staphylococcus aureus, read-out: MIC.
Where [18] appears, read: Bacillus subtilis, CMCC63501, read-out: MIC.
The mark [19] stands for this setting: Streptococcus mutans, BNCC336931, read-out: MIC.
[20] abbreviates: Staphylococcus aureus, CMCC25923, read-out: MIC.

Values after ≈ are worked out from the molar mass of the structure shown. Like-named read-outs stand apart in the source and are kept apart here.

A word on the MIC: it is the smallest concentration in the dilution series that meets the test's criterion for growth inhibition. Broadly, the melting point is the temperature of the solid-liquid transition. Turning to `N=C(N)NN=Cc1ccc(C#CC#Cc2ccc(Br)cc2)cc1` [Compound 6j, 2-(4-((4-Bromophenyl)buta-1,3-diyn-1-yl)benzylidene)hydrazine-1-carboximidamide], the melting point fell in the range of 227 to 230 °C. Also, in data set [1] (setting [12]), the MIC turned out to be 128 µg/mL (≈ 350 µM). Also, the MIC in data set [2] (setting [13]) is more than 128 µg/mL. The MIC in data set [3] (setting [14]) was more than 128 µg/mL. For the same compound, the MIC in data set [4] (setting [15]) is more than 128 µg/mL. Besides, the MIC in data set [5] (setting [16]) was more than 128 µg/mL. For the same compound, the MIC in [6] (setting [17]) stood at 128 µg/mL (≈ 350 µM). Also, the MIC in [7] (setting [18]) was more than 128 µg/mL. Further, the MIC in data set [8] (setting [19]) was more than 128 µg/mL. The MIC in [9] (setting [20]) was more than 128 µg/mL.
`N=C(N)NN=Cc1ccc(C#Cc2ccccc2)cc1` [Compound 3a, 2-(4-(Phenylethynyl)benzylidene)hydrazine-1-carboximidamide] registered a melting point of 225 to 226 °C. For the same compound, in [1] (setting [12]), the MIC is 1 µg/mL (≈ 3.81 µM). For the same compound, the MIC in data set [2] (setting [13]) amounted to 4 µg/mL (≈ 15.2 µM). The MIC in data set [3] (setting [14]) is 4 µg/mL (≈ 15.2 µM). In addition, the MIC in data set [4] (setting [15]) was determined as 4 µg/mL (≈ 15.2 µM). Also, the MIC in data set [5] (setting [16]) was 16 µg/mL (≈ 61 µM). Further, the MIC in [6] (setting [17]) turned out to be 1 µg/mL (≈ 3.81 µM). Further, the MIC in data set [7] (setting [18]) was 2 µg/mL (≈ 7.62 µM). For the same compound, the MIC in [8] (setting [19]) is 4 µg/mL (≈ 15.2 µM). Besides, the MIC in data set [9] (setting [20]) came out at 4 µg/mL (≈ 15.2 µM).
With `N=C(N)NN=Cc1ccc(C#CC#Cc2cccc(Cl)c2)cc1` [Compound 6f, 2-(4-((3-Chlorophenyl)buta-1,3-diyn-1-yl)benzylidene)hydrazine-1-carboximidamide], the melting point is 198 to 201 °C. In addition, the MIC in [1] (setting [12]) amounted to 0.5 µg/mL (≈ 1.56 µM). Further, the MIC in [2] (setting [13]) stood at 32 µg/mL (≈ 99.8 µM). Also, in data set [3] (setting [14]), the minimum inhibitory concentration (MIC) is 4 µg/mL (≈ 12.5 µM). Besides, in [4] (setting [15]), the MIC was found to be 16 µg/mL (≈ 49.9 µM). For the same compound, in data set [5] (setting [16]), the MIC is more than 128 µg/mL. Moreover, in data set [6] (setting [17]), the MIC came out at 1 µg/mL (≈ 3.12 µM). In addition, in data set [7] (setting [18]), the MIC is 4 µg/mL (≈ 12.5 µM). For the same compound, the MIC in [8] (setting [19]) worked out at 0.5 µg/mL (≈ 1.56 µM). The MIC in [9] (setting [20]) turned out to be 8 µg/mL (≈ 24.9 µM).
`N=C(N)NN=Cc1ccc(C#Cc2cccc(F)c2)cc1` [Compound 3c, 2-(4-((3-Fluorophenyl)ethynyl)benzylidene)hydrazine-1-carboximidamide] yielded a melting point of 223 to 224 °C. Also, in [10] (Staphylococcus aureus, ATCC33591, read-out: MIC), the MIC came out at 1 µg/mL (≈ 3.57 µM). Further, in data set [11] (Staphylococcus aureus, ATCC43300, read-out: MIC), the MIC turned out to be 2 µg/mL (≈ 7.14 µM). In [1] (setting [12]), the MIC came to 1 µg/mL (≈ 3.57 µM). For the same compound, the MIC in data set [2] (setting [13]) worked out at 4 µg/mL (≈ 14.3 µM). In data set [3] (setting [14]), the MIC is 2 µg/mL (≈ 7.14 µM). Also, in data set [4] (setting [15]), the MIC stood at 2 µg/mL (≈ 7.14 µM). The MIC in data set [5] (setting [16]) was 16 µg/mL (≈ 57.1 µM). In addition, the MIC in data set [6] (setting [17]) amounted to 1 µg/mL (≈ 3.57 µM). The MIC in data set [7] (setting [18]) turned out to be 1 µg/mL (≈ 3.57 µM). Further, the MIC in data set [8] (setting [19]) is 2 µg/mL (≈ 7.14 µM). Also, the MIC in [9] (setting [20]) is 4 µg/mL (≈ 14.3 µM).
With Penicillin [reference compound], the minimum inhibitory concentration (MIC) in data set [10] is more than 32 µg/mL; in [10] (listed as penicillin) it was more than 32 µg/mL; in data set [11] it was 32 µg/mL; in data set [1] it was 128 µg/mL; in [2], more than 128 µg/mL; in data set [3] it was 128 µg/mL. Besides, the MIC is 32 µg/mL in data set [4]; more than 128 µg/mL in [5]; 0.125 µg/mL in data set [6]; 128 µg/mL in data set [7]; 0.125 µg/mL in data set [8]; 0.125 µg/mL in [9].
`N=C(N)NN=Cc1ccc(C#Cc2ccccc2F)cc1` [Compound 3b, 2-(4-((2-Fluorophenyl)ethynyl)benzylidene)hydrazine-1-carboximidamide] displayed a melting point of 189 to 190 °C. Besides, the MIC in [1] (setting [12]) was 1 µg/mL (≈ 3.57 µM). In addition, the MIC in [2] (setting [13]) was determined as 8 µg/mL (≈ 28.5 µM). Besides, the MIC in [3] (setting [14]) was determined as 4 µg/mL (≈ 14.3 µM). In [4] (setting [15]), the MIC amounted to 8 µg/mL (≈ 28.5 µM). Moreover, in data set [5] (setting [16]), the MIC turned out to be 128 µg/mL (≈ 457 µM). Moreover, in [6] (setting [17]), the MIC turned out to be 1 µg/mL (≈ 3.57 µM). Moreover, the MIC in data set [7] (setting [18]) worked out at 2 µg/mL (≈ 7.14 µM). Further, the MIC in data set [8] (setting [19]) came to 4 µg/mL (≈ 14.3 µM). Further, the MIC in [9] (setting [20]) came to 8 µg/mL (≈ 28.5 µM).

The values above are taken from publication PMC6968633, “Synthesis, antibacterial and anticancer activity, and docking study of aminoguanidines containing an alkynyl moiety” (Journal of Enzyme Inhibition and Medicinal Chemistry, 2019).
